Counter-ions that a name gives are not always drawn.
Target: IRAK4 (Homo sapiens (Human), UniProt Q9NWZ3)
Assay: IRAK4 Kinase Assay (IMAP fluorescence polarization)
Type: biochemical
Conditions: GST tagged IRAK4, 100 μM ATP, 30 minutes at 25° C., IMAP FP
Description: Other assays are known in the literature and could be readily performed by those of skill in the art.
The reaction is initiated by the addition of ATP.

Sequence of IRAK4 (Q9NWZ3 whole entry): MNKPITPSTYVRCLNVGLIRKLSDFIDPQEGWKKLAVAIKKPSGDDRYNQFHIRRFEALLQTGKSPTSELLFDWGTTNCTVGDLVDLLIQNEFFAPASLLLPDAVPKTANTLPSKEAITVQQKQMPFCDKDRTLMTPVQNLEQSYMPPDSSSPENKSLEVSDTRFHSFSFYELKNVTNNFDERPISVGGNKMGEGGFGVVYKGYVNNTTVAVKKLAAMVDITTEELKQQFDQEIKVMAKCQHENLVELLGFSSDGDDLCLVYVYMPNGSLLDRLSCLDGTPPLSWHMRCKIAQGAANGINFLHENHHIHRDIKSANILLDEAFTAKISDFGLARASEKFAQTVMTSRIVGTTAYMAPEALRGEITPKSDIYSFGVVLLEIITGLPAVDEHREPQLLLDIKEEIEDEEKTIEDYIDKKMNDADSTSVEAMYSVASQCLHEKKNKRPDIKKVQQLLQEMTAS

Row | Structure (SMILES) | IC50 [nM]
1 | CNC(=O)c1nn(CCO)cc1NC(=O)c1ccc2cnc(N[C@@H]3CCCC[C@@H]3N)nn12 [Example 65, 2-{[(1R,2S)-2-aminocyclohexyl]amino}-N-[1-(2-hydroxyethyl)-3-(methylcarbamoyl)-1H-pyrazol-4-yl]pyrrolo[2,1-f][1,2,4]triazine-7-carboxamide trifluoroacetate] | 63
2 | CNC(=O)c1nn(C)cc1NC(=O)c1ccc2cnc(NCCN)nn12 [Example 60, 2-[(2-aminoethyl)amino]-N-[1-methyl-3-(methylcarbamoyl)-1H-pyrazol-4-yl]pyrrolo[2,1-f][1,2,4]triazine-7-carboxamide trifluoroacetate] | 3
3 | CN(C)C(=O)c1nn(C)cc1NC(=O)c1cnn2ccc(N[C@H]3CCCC[C@H]3N)nc12 (relative stereo) [Example 17, 5-{[cis-2-aminocyclohexyl]amino}-N-[3-(dimethylcarbamoyl)-1-methyl-1H-pyrazol-4-yl]pyrazolo[1,5-a]pyrimidine-3-carboxamide trifluoroacetate] | 150
4 | CC(C)n1cc(NC(=O)c2cnn3ccc(N[C@@H]4CCCC[C@@H]4N)nc23)c(C(N)=O)n1 [Example 22, 5-{[(1R,2S)-2-aminocyclohexyl]amino}-N-[3-carbamoyl-1-(1-methylethyl)-1H-pyrazol-4-yl]pyrazolo[1,5-a]pyrimidine-3-carboxamide trifluoroacetate] | 1
5 | Cn1cc(NC(=O)c2cnn3ccc(NCC4CNC(=O)C4)nc23)c(C(N)=O)n1 (stereo not drawn) [Example 29, N-(3-carbamoyl-1-methyl-1H-pyrazol-4-yl)-5-{[(5-oxopyrrolidin-3-yl)methyl]amino}pyrazolo[1,5-a]pyrimidine-3-carboxamide] | 270
6 | Cn1cc(NC(=O)c2ccc3cccnn23)c(C(N)=O)n1 [Example 43, N-(3-carbamoyl-1-methyl-1H-pyrazol-4-yl)pyrrolo[1,2-b]pyridazine-7-carboxamide trifluoroacetate] | 27
7 | CS(=O)(=O)N1CCC(n2cc(NC(=O)c3cnn4cccnc34)c(C(N)=O)n2)CC1 [Example 48, N-{3-carbamoyl-1-[1-(methylsulfonyl)piperidin-4-yl]-1H-pyrazol-4-yl}pyrazolo[1,5-a]pyrimidine-3-carboxamide] | 650
8 | Cn1cc(NC(=O)c2cnn3ccc(N[C@H]4CS(=O)(=O)CC[C@H]4N)nc23)c(C(N)=O)n1 (relative stereo) [Example 5, 5-{[cis-4-amino-1,1-dioxidotetrahydro-2H-thiopyran-3-yl]amino}-N-(3-carbamoyl-1-methyl-1H-pyrazol-4-yl)pyrazolo[1,5-a]pyrimidine-3-carboxamide trifluoroacetate] | 15
9 | Cn1cc(NC(=O)c2cnn3ccc(NC4CCCCC4O)nc23)c(C(N)=O)n1 (stereo not drawn) [Example 27, N-(3-carbamoyl-1-methyl-1H-pyrazol-4-yl)-5-[(2-hydroxycyclohexyl)amino]pyrazolo[1,5-a]pyrimidine-3-carboxamide] | 210
10 | CS(=O)(=O)N1CCCC(n2cc(NC(=O)c3cnn4ccc(N[C@H]5CCCC[C@H]5N)nc34)c(C(N)=O)n2)C1 (relative stereo) [Example 20, 5-{[cis-2-aminocyclohexyl]amino}-N-{3-carbamoyl-1-[1-(methylsulfonyl)piperidin-3-yl]-1H-pyrazol-4-yl}pyrazolo[1,5-a]pyrimidine-3-carboxamide trifluoroacetate] | 4
11 | Cn1cc(NC(=O)c2ccc3cnc(N[C@@H]4CCCC[C@@H]4N)nn23)c(C(N)=O)n1 [Example 61, 2-{[(1R,2S)-2-aminocyclohexyl]amino}-N-(3-carbamoyl-1-methyl-1H-pyrazol-4-yl)pyrrolo[2,1-f][1,2,41triazine-7-carboxamide trifluoroacetate] | 0.7
12 | Cn1cc(NC(=O)c2cnn3ccc(NC4CCCNC4)nc23)c(C(N)=O)n1 (stereo not drawn) [Example 15, N-(3-carbamoyl-1-methyl-1H-pyrazol-4-yl)-5-(piperidin-3-ylamino)pyrazolo[1,5-a]pyrimidine-3-carboxamide hydrochloride] | 33
13 | NC(=O)c1sccc1NC(=O)c1cnn2cccnc12 [Example 50, N-(2-carbamoylthiophen-3-yl)pyrazolo[1,5-a]pyrimidine-3-carboxamide hydrochloride] | 3500
14 | CNS(=O)(=O)c1ccc(-n2cc(NC(=O)c3cnn4ccc(N5CCNCC5)nc34)c(C(N)=O)n2)cc1 [Example 33, N-{3-Carbamoyl-1-[4-(methylsulfamoyl)phenyl]-1H-pyrazol-4-yl}-5-piperazin-1-ylpyrazolo[1,5-a]pyrimidine-3-carboxamide] | 4
15 | NC(=O)c1cc(Br)ccc1NC(=O)c1cnn2cccnc12 [Example 55, N-(4-bromo-2-carbamoylphenyl)pyrazolo[1,5-a]pyrimidine-3-carboxamide hydrochloride] | > 5000
16 | Cn1cc(NC(=O)c2csc3nccnc23)c(C(N)=O)n1 [Example 56, N-(3-Carbamoyl-1-methyl-1H-pyrazol-4-yl)thieno[2,3-b]pyrazine-7-carboxamide] | 69
17 | Cn1cc(NC(=O)c2cnn3ccc(N4CCOCC4)nc23)c(C(N)=O)n1 [Example 30, N-(3-carbamoyl-1-methyl-1H-pyrazol-4-yl)-5-morpholin-4-ylpyrazolo[1,5-a]pyrimidine-3-carboxamide hydrochloride] | 240
18 | NC(=O)c1ccncc1NC(=O)c1cnn2cccnc12 [Example 45, N-(4-carbamoylpyridin-3-yl)pyrazolo[1,5-a]pyrimidine-3-carboxamide hydrochloride] | 8100
19 | COCCn1cc(NC(=O)c2ccc3cnc(N[C@@H]4CCCC[C@@H]4N)nn23)c(C(N)=O)n1 [Example 66, 2-{[(1R,2S)-2-aminocyclohexyl]amino}-N-[3-carbamoyl-1-(2-methoxyethyl)-1H-pyrazol-4-yl]pyrrolo[2,1-f][1,2,4]triazine-7-carboxamide trifluoroacetate] | 6
20 | NC(=O)c1nn(CCO)cc1NC(=O)c1ccc2cnc(N[C@@H]3CCCC[C@@H]3N)nn12 [Example 63, 2-{[(1R,2S)-2-aminocyclohexyl]amino}-N-[3-carbamoyl-1-(2-hydroxyethyl)-1H-pyrazol-4-yl]pyrrolo[2,1-f][1,2,4]triazine-7-carboxamide trifluoroacetate] | 3
21 | NC(=O)Cn1cc(NC(=O)c2cnn3ccc(N[C@@H]4CCCC[C@@H]4N)nc23)c(C(N)=O)n1 [Example 32, 5-{[(1R,2S)-2-Aminocyclohexyl]amino}-N-[1-(2-amino-2-oxoethyl)-3-carbamoyl-1H-pyrazol-4-yl]pyrazolo[1,5-a]pyrimidine-3-carboxamide] | 3
22 | NC(=O)c1cc(S(N)(=O)=O)c(Cl)cc1NC(=O)c1cnn2cccnc12 [Example 54, N-(2-carbamoyl-5-chloro-4-sulfamoylphenyl)pyrazolo[1,5-a]pyrimidine-3-carboxamide trifluoroacetate] | 310
23 | Cn1cc(NC(=O)c2cnn3ccc(N[C@@H]4CCCC(F)(F)[C@@H]4N)nc23)c(C(N)=O)n1 [Example 3, 5-{[(1R,2R)-2-amino-3,3-difluorocyclohexyl]amino}-N-(3-carbamoyl-1-methyl-1H-pyrazol-4-yl)pyrazolo[1,5-a]pyrimidine-3-carboxamide trifluoroacetate] | 32
24 | NC(=O)c1n[nH]cc1NC(=O)c1cnn2cccnc12 [Example 53, N-(3-carbamoyl-1H-pyrazol-4-yl)pyrazolo[1,5-a]pyrimidine-3-carboxamide trifluoroacetate] | 700

— patent US10155765B2, “Carboxamide inhibitors of IRAK4 activity” (MERCK SHARP & DOHME CORP., priority 2015, dated 2018)
